Reference: US11530244B2, “Cyclic polypeptides for PCSK9 inhibition” (priority 2018, dated 2022)
Where a name gives a salt, the structure may show the parent alone. Starred links: 1 amine or outer side, 2 acyl side, 3 side chain; linkers in the order of their positions; H or OH if unused. Positions of bridges follow the written chain, without caps; N, C: chain ends. Non-standard residues stand in square brackets, D forms with d. Residues, ends and D or L forms follow the SMILES beside them. *: point of attachment. X29 = O=C([C@H](Cc1ccc(CC=[*:3])cc1)N[*:1])[*:2]; X32 = O=C(CCc1cccc2c1oc1c(CCN[*:1])cccc12)[*:2]; Trp(5-F) = N[C@@H](Cc1c[nH]c2ccc(F)cc12)C(=O)O; Pro(cis-4-F) = O=C(O)[C@@H]1C[C@H](F)CN1; Hag = O=C([C@H](CCC=[*:3])N[*:1])[*:2]; mXylylene = c1cc(C[*:1])cc(C[*:2])c1; AEF = NCCOc1ccc(C[C@H](N)C(=O)O)cc1; X46 = O=C(C[*:2])NCCCCC(=O)[*:1]; αMeP = C[C@@]1(C(=O)O)CCCN1; Isobutyryl = CC(C)C(=O)*; Piv = CC(C)(C)C(=O)*; Propionyl = CCC(=O)*; Tfa = O=C(C(F)(F)F)*; Glycolyl = O=C(CO)*; Mpa = O=C(O)CCS

Tests used:
[1] = biological target: T1, PCSK9 (Homo sapiens (Human), UniProt Q8NBP7); test: PCSK9 Alexa FRET Standard assay (displacement of AlexaFluor647 tagged cyclic peptide Reagent A); format: binding; settings: 0.5 nM PCSK9, 20 nM AF cyclic peptide Reagent A
T1 sequence (Q8NBP7 153-692): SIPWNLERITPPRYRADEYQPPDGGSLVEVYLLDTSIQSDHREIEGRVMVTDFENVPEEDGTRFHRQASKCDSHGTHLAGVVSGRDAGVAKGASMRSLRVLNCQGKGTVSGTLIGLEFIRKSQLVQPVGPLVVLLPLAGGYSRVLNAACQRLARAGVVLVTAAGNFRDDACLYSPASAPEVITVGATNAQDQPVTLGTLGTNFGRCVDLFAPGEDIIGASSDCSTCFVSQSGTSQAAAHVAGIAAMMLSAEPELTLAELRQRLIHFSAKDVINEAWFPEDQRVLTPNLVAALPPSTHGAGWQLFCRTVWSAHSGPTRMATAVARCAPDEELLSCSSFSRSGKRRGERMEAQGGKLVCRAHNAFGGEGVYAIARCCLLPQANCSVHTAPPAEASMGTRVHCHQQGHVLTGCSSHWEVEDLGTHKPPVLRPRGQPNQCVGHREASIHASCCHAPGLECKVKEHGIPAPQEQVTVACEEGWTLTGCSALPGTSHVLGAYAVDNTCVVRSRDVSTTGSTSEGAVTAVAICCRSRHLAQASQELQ
Outline: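 TR-FRET displacement: 0.5 nM biotinylated PCSK9 with 1.25 nM Strep-Eu and 20 nM AlexaFluor-tagged cyclic peptide (final) in 50 mM HEPES pH 7.4, 0.15 M NaCl, 5 mM CaCl2, 0.01% BSA, 0.01% P20, ≥2 h at room temperature. IC50 from sigmoidal fit, converted to Ki via peptide KD; falling Eu counts flagged false positives.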

[2] = biological target: T1, PCSK9; test: PCSK9 Alexa FRET Plus assay (displacement of AlexaFluor647 tagged cyclic peptide Reagent B); format: binding; settings: 0.5 nM PCSK9, 960 nM AF cyclic peptide Reagent B
Experimental: A solution containing 1 nM biotinylated PCSK9+2.5 nM Lance Streptavidin Europium (Strep-Eu) was made in 50 mM HEPES pH 7.4, 0.15 M NaCl, 5 mM CaCl2), 0.01% BSA, and 0.01% Surfactant P20. A separate solution containing 1920 nM of the AlexaFluor tagged cyclic peptide was made in the same buffer system. An Echo was used to transfer 0.075 ul of compound plus 0.675 ul of DMSO to each well of an assay plate followed by the addition of 15 ul of PCSK9+Stept-Eu and 15 ul of AF peptide. The final assay volume was 30.750 ul containing 0.5 nM PCSK9, 1.25 nM Strep-Eu, and 960 nM AF cyclic peptide. The reaction was incubated at room temperature for at least two hours prior to fluorescence measurements using an Envision Multilabel Reader. IC50 values were determined by fitting data to a sigmoidal dose-response curve using nonlinear regression. Ki was then calculated from the IC50 and the KD of AF cyclic peptide. Counts (B-counts) of the europium-labeled PCSK9 were followed to observe if compounds were adversely affecting PCSK9. A fall off of the B-counts likely indicated a false positive of inhibition. Data from this procedure was reported as “P=‘numerical value’ (nanomolar)”

[3] = PCSK9 Alexa FRET Standard assay, read-out: IC50
[4] = Alexa FRET Plus, read-out: IC50
[5] = IC50, PCSK9 Alexa FRET Standard assay

Row | SMILES | IC50 [1, 3] | IC50 [2, 4] | IC50 [1, 5] | IC50 ([2]; IC50, Alexa FRET Plus)
1 | COc1ccc(C[C@@H]2NC(=O)[C@H]([C@@H](C)O)NC(=O)[C@@H]3C[C@H](F)CN3C(=O)[C@H](Cc3c[nH]c4ccc(F)cc34)NC(=O)[C@H](Cc3c[nH]c4ccc(F)cc34)NC(=O)[C@@H](C)NC(=O)[C@H](CCCCN)NC(=O)[C@@H](NC(=O)CO)CC(=O)NCCOc3ccc(cc3)C[C@@H](C(N)=O)NC(=O)[C@]3(C)CCCN3C2=O)cc1 [Compound 115] (Glycolyl-DK[dA][Trp(5-F)][Trp(5-F)][Pro(cis-4-F)]TY(Me)[αMeP][AEF]-NH2; lactam 1-10) | 100 to 1000 nM | 500 to 5000 nM | – | –
2 | COc1ccc(C[C@@H]2NC(=O)[C@H]([C@@H](C)O)NC(=O)[C@@H]3C[C@H](F)CN3C(=O)[C@H](Cc3c[nH]c4ccc(F)cc34)NC(=O)[C@H](Cc3c[nH]c4ccc(F)cc34)NC(=O)[C@@H](C)NC(=O)[C@H](CCCCN)NC(=O)[C@@H](NC(=O)CO)CC(=O)NCCOc3ccc(cc3)C[C@@H](C(N)=O)NC(=O)[C@]3(C)CCCN3C2=O)cc1 [Compound 116] (Glycolyl-DK[dA][Trp(5-F)][Trp(5-F)][Pro(cis-4-F)]TY(Me)[αMeP][AEF]-NH2; lactam 1-10) | 21000 to 50000 nM | 500 to 5000 nM | – | –
3 | COc1ccc(C[C@@H]2NC(=O)[C@H]([C@@H](C)O)NC(=O)[C@@H]3C[C@H](F)CN3C(=O)[C@H](Cc3c[nH]c4ccc(F)cc34)NC(=O)[C@H](Cc3c[nH]c4ccc(F)cc34)NC(=O)[C@@H](C)NC(=O)[C@H](CCCCN)NC(=O)CCCCNC(=O)COc3ccc(cc3)C[C@@H](C(N)=O)NC(=O)[C@]3(C)CCCN3C2=O)cc1 [Compound 117] (K[dA][Trp(5-F)][Trp(5-F)][Pro(cis-4-F)]TY(Me)[αMeP]Y-NH2; linker N-9 via X46) | 0.11 to 100 nM | 500 to 5000 nM | – | –
4 | CCC(=O)N[C@H]1CC(=O)NCCOc2ccc(cc2)C[C@@H](C(N)=O)NC(=O)[C@]2(C)CCCN2C(=O)[C@H](Cc2ccc(OC)cc2)NC(=O)[C@H]([C@@H](C)O)NC(=O)[C@@H]2C[C@H](F)CN2C(=O)[C@H](Cc2c[nH]c3ccc(F)cc23)NC(=O)[C@H](Cc2c[nH]c3ccc(F)cc23)NC(=O)[C@@H](C)NC(=O)[C@H](CCCCN)NC1=O [Compound 118] (Propionyl-DK[dA][Trp(5-F)][Trp(5-F)][Pro(cis-4-F)]TY(Me)[αMeP][AEF]-NH2; lactam 1-10) | 21000 to 50000 nM | 500 to 5000 nM | – | –
5 | COc1ccc(C[C@@H]2NC(=O)[C@H]([C@@H](C)O)NC(=O)[C@@H]3C[C@H](F)CN3C(=O)[C@H](Cc3c[nH]c4ccc(F)cc34)NC(=O)[C@H](Cc3c[nH]c4ccc(F)cc34)NC(=O)[C@@H](C)NC(=O)[C@H](CCCCN)NC(=O)[C@@H](NC(=O)C(C)(C)C)CC(=O)NCCOc3ccc(cc3)C[C@@H](C(N)=O)NC(=O)[C@]3(C)CCCN3C2=O)cc1 [Compound 119] (Piv-DK[dA][Trp(5-F)][Trp(5-F)][Pro(cis-4-F)]TY(Me)[αMeP][AEF]-NH2; lactam 1-10) | 21000 to 50000 nM | 500 to 5000 nM | – | –
6 | C[C@@]12CCCN1C(=O)[C@H](Cc1ccc(O)cc1)NC(=O)CCc1cccc3c1Oc1c(cccc1-3)CCNC(=O)[C@H](Cc1c[nH]c3ccc(F)cc13)NC(=O)[C@H](Cc1c[nH]c3ccc(F)cc13)NC(=O)CNC(=O)[C@H](CCCCN)NC(=O)CCSCc1cccc(c1)CSC[C@H](C(N)=O)NC2=O [Compound 120] ([Mpa]KG[Trp(5-F)][Trp(5-F)][X32]Y[αMeP][dC]-NH2; linker 1-9 via mXylylene) | 1000 to 12100 nM | 500 to 5000 nM | – | –
7 | C[C@@]12CCCN1C(=O)[C@H](Cc1ccc(O)cc1)NC(=O)CN1C(=O)[C@H](N=C(c3ccccc3)c3ccccc31)NC(=O)[C@H](Cc1c[nH]c3ccc(F)cc13)NC(=O)[C@H](Cc1c[nH]c3ccc(F)cc13)NC(=O)CNC(=O)[C@H](CCCCN)NC(=O)CCSCc1cccc(c1)CSC[C@@H](C(N)=O)NC2=O [Compound 121] | – | – | 0.11 to 100 nM | 0.1 to 100 nM
8 | C[C@@]12CCCN1C(=O)[C@H](Cc1ccc(O)cc1)NC(=O)CN1C(=O)[C@@H](N=C(c3ccccc3)c3ccccc31)NC(=O)[C@H](Cc1c[nH]c3ccc(F)cc13)NC(=O)[C@H](Cc1c[nH]c3ccc(F)cc13)NC(=O)CNC(=O)[C@H](CCCCN)NC(=O)CCSCc1cccc(c1)CSC[C@@H](C(N)=O)NC2=O [Compound 122] | – | – | 0.11 to 100 nM | 0.1 to 100 nM
9 | COc1ccc(C[C@@H]2NC(=O)[C@H]([C@@H](C)O)NC(=O)[C@@H]3C[C@H](F)CN3C(=O)[C@H](Cc3c[nH]c4ccc(F)cc34)NC(=O)[C@H](Cc3c[nH]c4ccc(F)cc34)NC(=O)[C@@H](C)NC(=O)[C@H](CCCCN)NC(=O)[C@@H](NC(=O)C(C)C)CC(=O)NCCOc3ccc(cc3)C[C@@H](C(N)=O)NC(=O)[C@]3(C)CCCN3C2=O)cc1 [Compound 123] (Isobutyryl-DK[dA][Trp(5-F)][Trp(5-F)][Pro(cis-4-F)]TY(Me)[αMeP][AEF]-NH2; lactam 1-10) | 0.11 to 100 nM | 0.1 to 100 nM | – | –

Continued, in another order:

Row | IC50 [1, 3] | IC50 [2, 4] | SMILES | IC50 [1, 5] | IC50 ([2]; IC50, Alexa FRET Plus)
10 | 0.11 to 100 nM | 0.1 to 100 nM | COc1ccc(C[C@@H]2NC(=O)[C@H]([C@@H](C)O)NC(=O)[C@@H]3C[C@H](F)CN3C(=O)[C@H](Cc3c[nH]c4ccc(F)cc34)NC(=O)[C@H](Cc3c[nH]c4ccc(F)cc34)NC(=O)[C@@H](C)NC(=O)[C@H](CCCCN)NC(=O)[C@@H](NC(=O)C(F)(F)F)CC(=O)NCCOc3ccc(cc3)C[C@@H](C(N)=O)NC(=O)[C@]3(C)CCCN3C2=O)cc1 [Compound 124] (Tfa-DK[dA][Trp(5-F)][Trp(5-F)][Pro(cis-4-F)]TY(Me)[αMeP][AEF]-NH2; lactam 1-10) | – | –
11 | 0.11 to 100 nM | 0.1 to 100 nM | C[C@@]12CCCN1C(=O)[C@H](Cc1ccc(O)cc1)NC(=O)CN1C(=O)[C@H](COc3ccccc31)NC(=O)[C@H](Cc1c[nH]c3ccc(F)cc13)NC(=O)[C@H](Cc1c[nH]c3ccc(F)cc13)NC(=O)CNC(=O)[C@H](CCCCN)NC(=O)CCSCc1cccc(c1)CSC[C@@H](C(N)=O)NC2=O [Compound 126] | – | –
12 | 0.11 to 100 nM | 500 to 5000 nM | C[C@@]12CCCN1C(=O)[C@H](Cc1ccc(O)cc1)NC(=O)CN1C(=O)[C@@H](N=C(C3CCCCC3)c3ccccc31)NC(=O)[C@H](Cc1c[nH]c3ccc(F)cc13)NC(=O)[C@H](Cc1c[nH]c3ccc(F)cc13)NC(=O)CNC(=O)[C@H](CCCCN)NC(=O)CCSCc1cccc(c1)CSC[C@@H](C(N)=O)NC2=O [Compound 129] | – | –
13 | 0.11 to 100 nM | 0.1 to 100 nM | CCCCCCCCCCCCCCCC(=O)N[C@@H](CCC(=O)NCCOCCOCC(=O)NCCOCCOCC(=O)NCCCC[C@H](NC(C)=O)C(=O)NCCOCCOCC(=O)N[C@@H]1CSCc2cccc(c2)CSC[C@@H](C(N)=O)NC(=O)[C@]2(C)CCCN2C(=O)[C@H](Cc2ccc(O)cc2)NC(=O)[C@H]([C@@H](C)O)NC(=O)N2C[C@@H](F)C[C@H]2C(=O)[C@H](Cc2c[nH]c3ccc(F)cc23)NC(=O)[C@H](Cc2c[nH]c3ccc(F)cc23)NC(=O)[C@@H](C)NC(=O)[C@H](C)NC1=O)C(=O)O [Compound 135] | – | –
14 | 0.11 to 100 nM | 0.1 to 100 nM | CCCCCCCCCCCCCCCC(=O)N[C@@H](CCC(=O)NCCOCCOCC(=O)NCCOCCOCC(=O)NCCCC[C@H](NC(C)=O)C(=O)NCCOCCOCCOCCOCCOCCOCCOCCOCCOCCOCCOCCOCCC(=O)N[C@@H]1CSCc2cccc(c2)CSC[C@@H](C(N)=O)NC(=O)[C@]2(C)CCCN2C(=O)[C@H](Cc2ccc(O)cc2)NC(=O)[C@H]([C@@H](C)O)NC(=O)N2C[C@@H](F)C[C@H]2C(=O)[C@H](Cc2c[nH]c3ccc(F)cc23)NC(=O)[C@H](Cc2c[nH]c3ccc(F)cc23)NC(=O)[C@@H](C)NC(=O)[C@H](C)NC1=O)C(=O)O [Compound 136] | – | –
15 | 21000 to 50000 nM | 500 to 5000 nM | COc1ccc(C[C@@H]2NC(=O)[C@H]([C@@H](C)O)NC(=O)[C@@H]3C[C@H](F)CN3C(=O)[C@H](Cc3c[nH]c4ccc(F)cc34)NC(=O)[C@H](Cc3c[nH]c4ccc(F)cc34)NC(=O)[C@@H](C)NC(=O)[C@H](CCCCN)NC(=O)[C@@H](NC(C)=O)CCC/C=C\Cc3ccc(cc3)C[C@@H](C(N)=O)NC(=O)[C@]3(C)CCCN3C2=O)cc1 [Compound 137] | – | –
16 | 100 to 1000 nM | 500 to 5000 nM | COc1ccc(C[C@@H]2NC(=O)[C@H]([C@@H](C)O)NC(=O)[C@@H]3C[C@H](F)CN3C(=O)[C@H](Cc3c[nH]c4ccc(F)cc34)NC(=O)[C@H](Cc3c[nH]c4ccc(F)cc34)NC(=O)[C@@H](C)NC(=O)[C@H](CCCCN)NC(=O)[C@@H](NC(C)=O)CC/C=C/Cc3ccc(cc3)C[C@@H](C(N)=O)NC(=O)[C@]3(C)CCCN3C2=O)cc1 [Compound 138] (Ac-[Hag]K[dA][Trp(5-F)][Trp(5-F)][Pro(cis-4-F)]TY(Me)[αMeP][X29]-NH2; staple (E) 1-10) | – | –
17 | 1000 to 12100 nM | 500 to 5000 nM | C[C@@]12CCCN1C(=O)[C@H](Cc1ccc(O)cc1)NC(=O)N[C@H]1CCCc3ccc(cc31)C(=O)[C@H](Cc1c[nH]c3ccc(F)cc13)NC(=O)[C@H](Cc1c[nH]c3ccc(F)cc13)NC(=O)CNC(=O)[C@H](CCCCN)NC(=O)CCSCc1cccc(c1)CSC[C@@H](C(N)=O)NC2=O [Compound 139] | – | –
